Results as given in paper PMC3267002 (Bioorganic & medicinal chemistry, 2011).
Counter-ions that a name gives are not always drawn.

Assays:
5HT2C receptor = molecular target: T1, 5HT2C receptor (Homo sapiens, UniProt P28335); assay: NIMH-PDSP radioligand binding, 5HT2C
T1 sequence (P28335 33-458): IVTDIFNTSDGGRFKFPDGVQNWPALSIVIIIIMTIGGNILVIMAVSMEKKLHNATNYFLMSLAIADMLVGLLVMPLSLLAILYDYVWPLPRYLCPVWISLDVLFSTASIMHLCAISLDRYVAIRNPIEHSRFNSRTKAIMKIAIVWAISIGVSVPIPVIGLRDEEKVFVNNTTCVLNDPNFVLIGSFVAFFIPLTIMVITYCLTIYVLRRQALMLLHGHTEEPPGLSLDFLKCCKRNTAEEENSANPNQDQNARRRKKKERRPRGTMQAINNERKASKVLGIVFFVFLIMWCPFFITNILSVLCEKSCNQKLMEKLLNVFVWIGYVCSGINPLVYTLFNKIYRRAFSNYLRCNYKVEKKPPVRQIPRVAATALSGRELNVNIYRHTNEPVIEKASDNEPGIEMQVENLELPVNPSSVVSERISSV

5HT1A receptor = molecular target: T2, 5HT1A receptor (Homo sapiens, UniProt P08908); assay: NIMH-PDSP radioligand binding, 5HT1A; settings: compound 15 as the template
T2 sequence (P08908 1-422): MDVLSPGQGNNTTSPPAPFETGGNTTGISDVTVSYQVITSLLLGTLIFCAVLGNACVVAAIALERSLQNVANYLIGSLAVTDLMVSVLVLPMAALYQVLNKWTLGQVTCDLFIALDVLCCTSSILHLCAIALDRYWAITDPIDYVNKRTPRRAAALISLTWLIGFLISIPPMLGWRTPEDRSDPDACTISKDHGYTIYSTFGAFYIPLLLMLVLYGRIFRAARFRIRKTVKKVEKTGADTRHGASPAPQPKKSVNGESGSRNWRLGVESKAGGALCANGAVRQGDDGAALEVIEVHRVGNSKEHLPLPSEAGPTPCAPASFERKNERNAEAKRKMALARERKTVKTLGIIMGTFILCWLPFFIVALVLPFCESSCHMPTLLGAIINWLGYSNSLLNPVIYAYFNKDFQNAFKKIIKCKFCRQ

D4 receptor = molecular target: T3, D4 receptor (Homo sapiens, UniProt P21917); assay: NIMH-PDSP radioligand binding, D4; settings: compared to the methylene analog (so in the source)
T3 sequence (P21917 1-419): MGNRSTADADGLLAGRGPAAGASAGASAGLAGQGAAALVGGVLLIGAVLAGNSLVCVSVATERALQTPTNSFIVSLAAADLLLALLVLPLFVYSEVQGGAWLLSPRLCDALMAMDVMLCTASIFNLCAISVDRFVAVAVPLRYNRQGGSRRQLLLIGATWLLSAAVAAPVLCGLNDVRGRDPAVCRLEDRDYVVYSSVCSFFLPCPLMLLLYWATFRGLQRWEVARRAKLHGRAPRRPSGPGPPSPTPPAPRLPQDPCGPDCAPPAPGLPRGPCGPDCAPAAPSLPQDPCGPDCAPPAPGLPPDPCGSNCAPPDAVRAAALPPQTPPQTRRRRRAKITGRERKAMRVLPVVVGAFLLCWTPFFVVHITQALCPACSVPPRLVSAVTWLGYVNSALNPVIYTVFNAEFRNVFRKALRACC

D2 receptor = D2 receptor (Homo sapiens, UniProt P14416); assay: NIMH-PDSP radioligand binding, D2; settings: compound 15 as the template
D2 receptor, sequence (P14416 whole entry): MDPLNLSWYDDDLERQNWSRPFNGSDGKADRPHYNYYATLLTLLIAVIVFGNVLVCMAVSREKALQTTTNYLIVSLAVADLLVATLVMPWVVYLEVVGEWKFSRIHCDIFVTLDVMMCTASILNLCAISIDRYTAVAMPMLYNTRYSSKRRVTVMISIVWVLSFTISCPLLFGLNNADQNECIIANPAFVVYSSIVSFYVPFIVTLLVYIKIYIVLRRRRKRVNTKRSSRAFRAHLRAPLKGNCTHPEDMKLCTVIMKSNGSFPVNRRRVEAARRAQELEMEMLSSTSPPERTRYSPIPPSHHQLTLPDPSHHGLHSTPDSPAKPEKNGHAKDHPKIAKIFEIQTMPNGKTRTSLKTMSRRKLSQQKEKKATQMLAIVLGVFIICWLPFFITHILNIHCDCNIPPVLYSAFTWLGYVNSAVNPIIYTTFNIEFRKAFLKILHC

Row | Structure (SMILES) | Ki (5HT2C receptor) [µM] | also measured
1 | Clc1ccc(N2CCN(CCCOc3ccccc3)CC2)cc1 [Compound 17, 1-(4-Chlorophenyl)-4-(3-phenoxypropyl)piperazine HCl] |  | binding increased by a factor, 5HT1A receptor (5HT1A receptor): 3
2 | OC1(c2ccc(Cl)cc2)CCN(CCCOc2ccc(F)cc2)CC1 [Compound 7, 4-(4-Chloro-phenyl)-1-[3-(4-fluoro-phenoxy)-propyl]-piperidin-4-ol] |  | increase in binding at the D4 receptor (D4 receptor): over 4 fold
3 | OC1(c2ccc(Cl)cc2)CCN(CCCSc2ccc(F)cc2)CC1 [Compound 6, 4-(4-chlorophenyl)-1-(3-((4-fluorophenyl)thio)propyl)piperidin-4-ol] |  | decrease in binding at the D4 receptor (D4 receptor): over 24 fold
4 | Fc1ccc(OCCCN2CCN(c3ccccc3)CC2)cc1 [Compound 16, 1-(3-(4-Fluorophenoxy)propyl)-4-phenylpiperazine] |  | increase in binding at the D2 receptor (D2 receptor): over 10 fold

Further lines, with some results ahead:

Row | Ki (5HT2C receptor) [µM] | Structure (SMILES) | also measured
5 | > 10 | Fc1ccc(OCCCN2CCN(c3ncccn3)CC2)cc1 [Compound 22, 2-(4-(3-(4-Fluorophenoxy)propyl)piperazin-1-yl)pyrimidine] | 
6 | > 10 | Fc1ccc(SCCCN2CCC(c3ccc(Cl)cc3)CC2)cc1 [Compound 8, 4-(4-Chlorophenyl)-1-(3-((4-fluorophenyl)thio)propyl)piperidine hydrochloride] | 
7 | > 10 | [O-][S+](CCCN1CCC(c2ccc(Cl)cc2)CC1)c1ccc(F)cc1 (centres unmarked) [Compound 10, 4-(4-Chlorophenyl)-1-(3-((4-fluorophenyl)sulfinyl)propyl)piperidine HCl] | 
8 | > 10 | Fc1ccc(OCCCN2CCC(c3ccc(Cl)cc3)CC2)cc1 [Compound 9, 4-(4-Chlorophenyl)-1-(3-(4-fluorophenoxy)propyl)piperidine] | 
